The values that follow come from US20240400560A1, “BICYCLIC HETEROCYCLIC DERIVATIVE HAVING VIRAL GROWTH INHIBITORY ACTIVITY AND PHARMACEUTICAL COMPOSITION CONTAINING SAME” (Shionogi & Co., Ltd., priority 2021, published 2024).

Read-outs that look alike come from different tables or passages of the source.

One assay has as its target SARS-CoV-2 3CL protease (Severe acute respiratory syndrome coronavirus 2, UniProt P0DTD1). Nature of the assay: Inhibitory activity test against SARS-CoV-2 3CL proteases. The format is biochemical. The note with it: read-out: IC50 (50% SARS-CoV-2 3CL protease inhibitory concentration).
A further assay has as its system SARS-CoV-2. Briefly: Inhibitory activity of cytopathic effect (CPE) in HEK293T/ACE2-TMPRSS2 cells. The class given is cell-based. The note with it: Severe acute respiratory syndrome coronavirus 2, HEK-293T, 72 h, HEK293T/ACE2-TMPRSS2 cells.
[1] abbreviates: cultured 3 days, CellTiter-Glo 2.0 luminescence, read-out: EC50 (50% SARS-CoV-2 infected cell death inhibitory concentration).
Setting [2] is: 50% SARS-CoV-2 infected cell death inhibitory concentration, CellTiter-Glo 2.0 after 3 days culture, read-out: EC50.

Consider `COc1nc(N2CC[C@@H](C(F)F)C2)cc2c1c(=O)n(-c1cnc3cc(F)ccn13)c(=O)n2-c1ccc(F)c(Cl)c1` [Compound I-0983], for which, at SARS-CoV-2 3CL protease, the IC50 is < 100 nM. Further, the EC50 in the assay on SARS-CoV-2 (setting [1]) was < 100 nM.
As to `COc1nc(N2CC[C@@H](C#N)C2)cc2c1c(=O)n(-c1cncc(C#N)c1)c(=O)n2-c1ccc(F)c(F)c1` [Compound I-0984], the IC50 at SARS-CoV-2 3CL protease is < 100 nM. Also, in the assay on SARS-CoV-2 (setting [1]), the EC50 was < 100 nM.
On to `COc1nc(N2C[C@H]3COC[C@H]3C2)cc2c1c(=O)n(-c1cnc3cc(F)ccn13)c(=O)n2-c1ccc(F)c(Cl)c1` [Compound I-0985], for which the IC50 on SARS-CoV-2 3CL protease was < 100 nM. Besides, the EC50 in the assay with SARS-CoV-2 (setting [1]) is < 100 nM.
Turning to `COc1nc(N(C)C)cc2c1c(=O)n(-c1cnc3cc(F)ccn13)c(=O)n2-c1ccc(F)c(Cl)c1` [Compound I-0986], the IC50 on SARS-CoV-2 3CL protease was determined as 6.5 nM. Also, the EC50 in the assay with SARS-CoV-2 (setting [2]) was 7.1 nM.
On to `COc1nc(N2CC(F)C2)cc2c1c(=O)n(-c1cnc3cc(F)ccn13)c(=O)n2-c1ccc(F)c(Cl)c1` [Compound I-0987], for which the IC50 at SARS-CoV-2 3CL protease is < 100 nM. Further, the EC50 in the assay on SARS-CoV-2 (setting [1]) is < 100 nM.
In the case of `O=c1c2c(=O)n(-c3cnc4cc(F)ccn34)c(=O)n(-c3ccc(F)c(Cl)c3)c2cc2n1C[C@@H]1CCCCN21` [Compound I-0988], the IC50 on SARS-CoV-2 3CL protease is < 100 nM. Moreover, the EC50 in the assay with SARS-CoV-2 (setting [1]) fell in the range of 100 to 1000 nM.
Regarding `COc1nc(N2C[C@H]3C[C@@H]2CO3)cc2c1c(=O)n(-c1cnc3cc(F)ccn13)c(=O)n2-c1ccc(F)c(Cl)c1` [Compound I-0989], the IC50 on SARS-CoV-2 3CL protease was < 100 nM. For the same compound, in the assay on SARS-CoV-2 (setting [1]), the EC50 is < 100 nM.
With `COc1nc(N2CC[C@@H](C#N)C2)cc2c1c(=O)n(-c1cncc(F)c1)c(=O)n2-c1ccc(F)c(F)c1` [Compound I-0990], the IC50 at SARS-CoV-2 3CL protease came out at 6.8 nM. For the same compound, the EC50 with SARS-CoV-2 (setting [2]) was 8.89 nM.
For the compound `COc1nc(N2C[C@@H]3C[C@H]2CO3)cc2c1c(=O)n(-c1cncc(C#N)c1)c(=O)n2-c1ccc(F)c(F)c1` [Compound I-0991], on SARS-CoV-2 3CL protease, the IC50 was < 100 nM. The EC50 with SARS-CoV-2 (setting [1]) is < 100 nM.
Take `COc1nc(N2CC[C@@H](O)C2)cc2c1c(=O)n(-c1cnc3ccc(C#N)cn13)c(=O)n2-c1ccc(F)c(Cl)c1` [Compound I-0992]: the IC50 on SARS-CoV-2 3CL protease was < 100 nM. The EC50 in the assay on SARS-CoV-2 (setting [1]) was < 100 nM.
For the compound `CCN(C)c1cc2c(c(OC)n1)c(=O)n(-c1cnc3cc(F)ccn13)c(=O)n2-c1ccc(F)c(Cl)c1` [Compound I-0993], the IC50 on SARS-CoV-2 3CL protease was < 100 nM. Besides, the EC50 with SARS-CoV-2 (setting [1]) is < 100 nM.
Consider `COc1nc(N2CC[C@@H](NC(C)=O)C2)cc2c1c(=O)n(-c1cncc(Cl)c1)c(=O)n2-c1ccc(F)c(Cl)c1` [Compound I-0994], for which the IC50 on SARS-CoV-2 3CL protease is < 100 nM. Besides, the EC50 with SARS-CoV-2 (setting [1]) is < 100 nM.
As for `COc1nc(N2CC[C@@H](C#N)C2)cc2c1c(=O)n(-c1cncc(OC(F)F)c1)c(=O)n2-c1ccc(F)c(F)c1` [Compound I-0995], the IC50 on SARS-CoV-2 3CL protease is < 100 nM. In addition, the EC50 in the assay with SARS-CoV-2 (setting [1]) is < 100 nM.
Regarding `CCNc1cc2c(c(OC)n1)c(=O)n(-c1cnc3cc(F)ccn13)c(=O)n2-c1ccc(F)c(Cl)c1` [Compound I-0996], the IC50 at SARS-CoV-2 3CL protease is < 100 nM. In addition, in the assay on SARS-CoV-2 (setting [1]), the EC50 was < 100 nM.
Regarding `COc1nc(N2CCC(F)(F)C2)cc2c1c(=O)n(-c1cncc(C)n1)c(=O)n2-c1ccc(F)c(Cl)c1` [Compound I-0997], the IC50 on SARS-CoV-2 3CL protease was < 100 nM. In addition, the EC50 in the assay on SARS-CoV-2 (setting [1]) is < 100 nM.
`COc1nc(N2CCC(F)(F)C2)cc2c1c(=O)n(-c1cncc(F)c1)c(=O)n2-c1ccc(F)c(Cl)c1` [Compound I-0998]: at SARS-CoV-2 3CL protease, the IC50 was < 100 nM. Besides, in the assay with SARS-CoV-2 (setting [1]), the EC50 is < 100 nM.
Regarding `C=Cc1cc2c(c(OC)n1)c(=O)n(-c1cnc3cc(F)ccn13)c(=O)n2-c1ccc(F)c(Cl)c1` [Compound I-0999], the IC50 at SARS-CoV-2 3CL protease was < 100 nM. Also, the EC50 in the assay with SARS-CoV-2 (setting [1]) fell in the range of 100 to 1000 nM.
In the same order, the values of `CNC(=O)[C@@H]1CCN(c2cc3c(c(OC)n2)c(=O)n(-c2cnc4cc(F)ccn24)c(=O)n3-c2ccc(F)c(Cl)c2)C1` [Compound I-1000] are < 100 nM and < 100 nM.
